Measured values: the NIST ThermoML archive (doi:10.1021/je060271a)
± gives the expanded uncertainty stated by the source.

Settings: 323.15 K, Liquid, Vibrating tube method

`CCCC(=O)OCC(COC(=O)CCC)(COC(=O)CCC)COC(=O)CCC` [pentaerythritol tetrabutyrate] gave a mass density (5297 kPa) of 1028.8 ± 1.2 kg/m3, a mass density (5297.2 kPa) of 1028.8 ± 1.2 kg/m3 and a mass density (5297.3 kPa) of 1028.9 ± 1.2 kg/m3. The mass density (5297.5 kPa) was 1028.8 ± 1.2 kg/m3, the mass density (5297.8 kPa) was 1028.8 ± 1.2 kg/m3 and the mass density (5324.7 kPa) was 1028.9 ± 1.2 kg/m3. For the same compound, the mass density (5344.4 kPa) was 1028.9 ± 1.2 kg/m3, the mass density (5347.8 kPa) was 1028.8 ± 1.2 kg/m3 and the mass density (5370.7 kPa) was 1028.8 ± 1.2 kg/m3. It also gave a mass density (5375.9 kPa) of 1028.8 ± 1.2 kg/m3, a mass density (5394.4 kPa) of 1028.9 ± 1.2 kg/m3 and a mass density (5418.8 kPa) of 1029 ± 1.2 kg/m3. For the same compound, the mass density (5422.4 kPa) was 1028.9 ± 1.2 kg/m3, the mass density (5445.4 kPa) was 1028.9 ± 1.2 kg/m3 and the mass density (5446.8 kPa) was 1028.9 ± 1.2 kg/m3. For the same compound, the mass density (5456 kPa) was 1028.9 ± 1.2 kg/m3, the mass density (5465.5 kPa) was 1028.9 ± 1.2 kg/m3 and the mass density (5470.8 kPa) was 1029 ± 1.2 kg/m3. It also gave a mass density (5493.7 kPa) of 1028.9 ± 1.2 kg/m3, a mass density (5495.4 kPa) of 1028.9 ± 1.2 kg/m3 and a mass density (5499.9 kPa) of 1029 ± 1.2 kg/m3. For the same compound, the mass density (5505.6 kPa) was 1028.9 ± 1.2 kg/m3, the mass density (5511.7 kPa) was 1028.8 ± 1.2 kg/m3 and the mass density (5524.8 kPa) was 1029 ± 1.2 kg/m3. The mass density (5529.5 kPa) was 1029 ± 1.2 kg/m3, the mass density (5540.8 kPa) was 1028.9 ± 1.2 kg/m3 and the mass density (5549.5 kPa) was 1029 ± 1.2 kg/m3. The mass density (5554.5 kPa) was 1029 ± 1.2 kg/m3, the mass density (5560.3 kPa) was 1028.9 ± 1.2 kg/m3 and the mass density (5567.9 kPa) was 1028.9 ± 1.2 kg/m3. The mass density (5573.4 kPa) was 1028.9 ± 1.2 kg/m3, the mass density (5575 kPa) was 1029 ± 1.2 kg/m3 and the mass density (5578 kPa) was 1029 ± 1.2 kg/m3. It also gave a mass density (5582.5 kPa) of 1029 ± 1.2 kg/m3, a mass density (5586.4 kPa) of 1028.9 ± 1.2 kg/m3 and a mass density (5590.4 kPa) of 1029.1 ± 1.2 kg/m3. It also gave a mass density (5594.2 kPa) of 1029 ± 1.2 kg/m3, a mass density (5605.6 kPa) of 1029 ± 1.2 kg/m3 and a mass density (5630.8 kPa) of 1029 ± 1.2 kg/m3. It also gave a mass density (5657.1 kPa) of 1029.1 ± 1.2 kg/m3, a mass density (5683.6 kPa) of 1029.1 ± 1.2 kg/m3 and a mass density (5710.2 kPa) of 1029.1 ± 1.2 kg/m3. The mass density (5742 kPa) was 1029.1 ± 1.2 kg/m3, the mass density (5769.2 kPa) was 1029.2 ± 1.2 kg/m3 and the mass density (5797 kPa) was 1029.2 ± 1.2 kg/m3. For the same compound, the mass density (5824.3 kPa) was 1029.2 ± 1.2 kg/m3, the mass density (5857.7 kPa) was 1029.2 ± 1.2 kg/m3 and the mass density (5886.4 kPa) was 1029.2 ± 1.2 kg/m3. For the same compound, the mass density (5945.6 kPa) was 1029.2 ± 1.2 kg/m3, the mass density (5970.4 kPa) was 1029.2 ± 1.2 kg/m3 and the mass density (6001.7 kPa) was 1029.3 ± 1.2 kg/m3. The mass density (6023.4 kPa) was 1029.3 ± 1.2 kg/m3, the mass density (6053.9 kPa) was 1029.4 ± 1.2 kg/m3 and the mass density (6080.4 kPa) was 1029.4 ± 1.2 kg/m3. For the same compound, the mass density (6107 kPa) was 1029.4 ± 1.2 kg/m3, the mass density (6138.8 kPa) was 1029.4 ± 1.2 kg/m3 and the mass density (6163.7 kPa) was 1029.4 ± 1.2 kg/m3. The mass density (6187.1 kPa) was 1029.4 ± 1.2 kg/m3, the mass density (6215.2 kPa) was 1029.6 ± 1.2 kg/m3 and the mass density (6240.1 kPa) was 1029.4 ± 1.2 kg/m3. It also gave a mass density (6265 kPa) of 1029.5 ± 1.2 kg/m3, a mass density (6287.3 kPa) of 1029.5 ± 1.2 kg/m3 and a mass density (6301.7 kPa) of 1029.5 ± 1.2 kg/m3. It also gave a mass density (6311 kPa) of 1029.5 ± 1.2 kg/m3, a mass density (6319.5 kPa) of 1029.4 ± 1.2 kg/m3 and a mass density (6327.5 kPa) of 1029.6 ± 1.2 kg/m3. For the same compound, the mass density (6345.8 kPa) was 1029.6 ± 1.2 kg/m3, the mass density (6372.1 kPa) was 1029.6 ± 1.2 kg/m3 and the mass density (6398.4 kPa) was 1029.7 ± 1.2 kg/m3. It also gave a mass density (6423.8 kPa) of 1029.8 ± 1.2 kg/m3, a mass density (6456.6 kPa) of 1029.6 ± 1.2 kg/m3 and a mass density (6483.4 kPa) of 1029.6 ± 1.2 kg/m3. The mass density (6511.5 kPa) was 1029.6 ± 1.2 kg/m3.
